Test in all cases: IA-DTB cysteine engagement
Common to all, as to format: binding
Holding throughout (conditions): 22Rv1 cells, 20 μM probe, 1 h, relative to DMSO

The target of one experiment is T1, APOOL_C74 (Homo sapiens, UniProt Q6UXV4).
T1 construct: endogenous in cells; host or cells: 22Rv1
T1 sequence (Q6UXV4 28-268): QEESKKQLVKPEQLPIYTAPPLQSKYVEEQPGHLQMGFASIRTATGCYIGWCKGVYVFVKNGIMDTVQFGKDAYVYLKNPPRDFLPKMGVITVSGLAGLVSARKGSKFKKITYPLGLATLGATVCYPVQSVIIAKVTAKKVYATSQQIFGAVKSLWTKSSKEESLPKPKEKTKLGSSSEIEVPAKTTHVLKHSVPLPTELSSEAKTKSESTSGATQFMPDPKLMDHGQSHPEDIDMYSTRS
In short, it runs like this: (§1)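 Probe-exposed cells were lysed, IA-DTB-labeled, trypsinized and streptavidin-enriched. Multiplexed TMT quantitation gave engagement ratios versus DMSO, with non-tryptic peptides excluded and intensities normalized to median summed signal.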

In a further experiment the target is T2, CBX1_C60 (Homo sapiens, UniProt P83916).
T2 construct: endogenous in cells; host or cells: 22Rv1
The method in brief:
as §1

Another experiment addresses T3, NSUN3_C298 (Homo sapiens, UniProt Q9H649).
T3 construct: endogenous in cells; host or cells: 22Rv1
T3 sequence (Q9H649 1-340): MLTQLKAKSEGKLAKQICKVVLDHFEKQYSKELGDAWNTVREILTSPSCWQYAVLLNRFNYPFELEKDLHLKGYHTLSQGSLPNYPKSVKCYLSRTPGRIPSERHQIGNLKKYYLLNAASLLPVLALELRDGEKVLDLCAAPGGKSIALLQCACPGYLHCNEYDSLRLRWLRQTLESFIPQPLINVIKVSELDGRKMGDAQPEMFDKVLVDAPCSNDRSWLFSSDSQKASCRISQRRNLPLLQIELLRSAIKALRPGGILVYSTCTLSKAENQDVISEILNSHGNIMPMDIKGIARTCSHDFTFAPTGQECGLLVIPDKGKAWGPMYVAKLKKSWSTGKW
In short, it runs like this: as §1

For the next experiment, the target named is T4, CCNE2_C109 (Homo sapiens, UniProt O96020).
T4 construct: endogenous in cells; host or cells: 22Rv1
In short, it runs like this:
as §1

For the next experiment, the target named is T5, ZNF346_C68 (Homo sapiens, UniProt Q9UL40).
T5 construct: endogenous in cells; host or cells: 22Rv1
T5 sequence (Q9UL40 1-294): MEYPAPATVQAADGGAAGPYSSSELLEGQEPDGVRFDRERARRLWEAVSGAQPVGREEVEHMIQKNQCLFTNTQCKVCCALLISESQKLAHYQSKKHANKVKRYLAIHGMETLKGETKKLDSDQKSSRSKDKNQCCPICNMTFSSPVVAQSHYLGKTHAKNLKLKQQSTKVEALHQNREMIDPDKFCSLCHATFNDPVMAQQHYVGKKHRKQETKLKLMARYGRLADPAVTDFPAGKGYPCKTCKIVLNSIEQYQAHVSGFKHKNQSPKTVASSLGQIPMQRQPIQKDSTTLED
In short, it runs like this:
as §1

We go through four compounds from patent publication US20250034216A1, “STEREOSELECTIVE COVALENT LIGANDS FOR ONCOGENIC AND IMMUNOLOGICAL PROTEINS” (The Scripps Research Institute, priority 2021, published 2025).

Molecules are shown by their SMILES.

T4 sequence (O96020 whole entry): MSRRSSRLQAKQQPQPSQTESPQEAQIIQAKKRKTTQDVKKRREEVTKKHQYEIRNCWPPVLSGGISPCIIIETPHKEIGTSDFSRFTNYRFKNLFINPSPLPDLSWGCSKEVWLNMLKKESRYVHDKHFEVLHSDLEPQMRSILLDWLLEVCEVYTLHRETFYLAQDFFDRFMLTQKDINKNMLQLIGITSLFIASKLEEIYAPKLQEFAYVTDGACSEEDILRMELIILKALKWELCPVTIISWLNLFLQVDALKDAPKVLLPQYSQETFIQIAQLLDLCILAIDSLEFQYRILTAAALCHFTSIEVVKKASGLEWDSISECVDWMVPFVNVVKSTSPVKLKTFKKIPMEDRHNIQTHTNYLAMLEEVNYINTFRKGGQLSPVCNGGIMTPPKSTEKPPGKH
T2 sequence (P83916 whole entry): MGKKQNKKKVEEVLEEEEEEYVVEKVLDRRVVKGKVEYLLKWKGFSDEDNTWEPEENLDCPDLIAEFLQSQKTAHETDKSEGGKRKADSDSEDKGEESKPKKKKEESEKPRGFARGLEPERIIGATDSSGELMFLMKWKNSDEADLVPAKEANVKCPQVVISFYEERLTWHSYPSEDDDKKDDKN

Turning to `C=CC(=O)N1C[C@H](c2ccc(Br)cc2)[C@@H]1C(=O)Nc1cccc2cccnc12` [MY-1B, (2R,3S)-1-acryloyl-3-(4-bromophenyl)-N-(quinolin-8-yl)azetidine-2-carboxamide], the “% engagement APOOL_C74” value on APOOL_C74 turned out to be 64.5%. The “% engagement CBX1_C60” value at CBX1_C60 is −14.5%. Further, at NSUN3_C298, the “% engagement NSUN3_C298” value was 55.5%. Further, at CCNE2_C109, the “% engagement CCNE2_C109” value was 76.75%. The “% engagement ZNF346_C68” value on ZNF346_C68 is listed as 37%.

As to `C=CC(=O)N1C[C@H](c2ccc(Br)cc2)[C@H]1C(=O)Nc1cccc2cccnc12` [MY-3B, (2S,3S)-1-acryloyl-3-(4-bromophenyl)-N-(quinolin-8-yl)azetidine-2-carboxamide], the “% engagement APOOL_C74” value on APOOL_C74 stood at 71.25%. Moreover, on CBX1_C60, the “% engagement CBX1_C60” value is reported as 75%. Also, the “% engagement NSUN3_C298” value at NSUN3_C298 worked out at 83%. The “% engagement CCNE2_C109” value at CCNE2_C109 amounted to 42.75%. In addition, the “% engagement ZNF346_C68” value at ZNF346_C68 was found to be 45.25%.

With `C=CC(=O)N1C[C@H](c2ccc(Br)cc2)[C@H]1C(=O)Nc1cccc2cccnc12` [MY-3A, (2S,3S)-1-acryloyl-3-(4-bromophenyl)-N-(quinolin-8-yl)azetidine-2-carboxamide], on APOOL_C74, the “% engagement APOOL_C74” value came to 52%. In addition, the “% engagement CBX1_C60” value on CBX1_C60 worked out at 14.5%. Moreover, the “% engagement NSUN3_C298” value at NSUN3_C298 was determined as 38%. In addition, at CCNE2_C109, the “% engagement CCNE2_C109” value was 21.75%. For the same compound, on ZNF346_C68, the “% engagement ZNF346_C68” value is given as 14%.

`C=CC(=O)N1C[C@@H](c2ccc(Br)cc2)[C@H]1C(=O)Nc1cccc2cccnc12` [MY-1A, (2S,3R)-1-acryloyl-3-(4-bromophenyl)-N-(quinolin-8-yl)azetidine-2-carboxamide]: on APOOL_C74, the “% engagement APOOL_C74” value was 52.75%. Further, the “% engagement CBX1_C60” value at CBX1_C60 is on record as −11.5%. The “% engagement NSUN3_C298” value at NSUN3_C298 is reported as 35.5%. Further, the “% engagement CCNE2_C109” value on CCNE2_C109 was 77%. Moreover, the “% engagement ZNF346_C68” value at ZNF346_C68 was found to be 95.5%.
